For experiment [1], the target named is T1, acyl-CoA: cholesterol acyltransferase (ACAT) (Rattus norvegicus, UniProt Q7TQM4).
T1 construct: microsome fraction of the tunica mucosa intestini tenuis; from tissue; host or cells: microsome fraction of small-intestinal mucosa, Sprague-Dawley male rat (six weeks old, fasted 20 hours)
T1 sequence (Q7TQM4 1-524): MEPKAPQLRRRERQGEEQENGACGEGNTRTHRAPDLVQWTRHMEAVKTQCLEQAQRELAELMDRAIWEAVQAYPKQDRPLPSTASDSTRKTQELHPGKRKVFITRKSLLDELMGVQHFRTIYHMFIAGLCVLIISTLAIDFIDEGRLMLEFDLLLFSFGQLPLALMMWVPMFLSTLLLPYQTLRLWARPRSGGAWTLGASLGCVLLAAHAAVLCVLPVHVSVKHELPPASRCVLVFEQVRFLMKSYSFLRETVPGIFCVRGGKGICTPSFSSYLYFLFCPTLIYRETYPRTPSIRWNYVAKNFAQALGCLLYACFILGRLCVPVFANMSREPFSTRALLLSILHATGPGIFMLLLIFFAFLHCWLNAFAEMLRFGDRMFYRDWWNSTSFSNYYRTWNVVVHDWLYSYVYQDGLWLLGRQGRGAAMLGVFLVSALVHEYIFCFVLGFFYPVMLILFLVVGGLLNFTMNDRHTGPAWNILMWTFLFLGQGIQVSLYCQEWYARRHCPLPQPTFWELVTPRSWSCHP
Description: ACAT inhibitory activity (labeled cholesterol ester formation from [1-14C]oleoyl-CoA and endogenous cholesterol; microsome fraction of rat tunica mucosa intestini tenuis). Format: biochemical, Spregue-Dawley male rat. Particulars: 10^-6 M; read-out: ACAT inhibitory rate (labeled cholesterol ester formation inhibitory rate). The method, then:
An enzyme specimen ACAT was prepared from a microsome fraction of the tunica mucosa intestini tenuis of Spregue-Dawley male rat (six week old) which had been subjected to fasting for 20 hours according to the method described in Journal of Lipid Research, 24, 1127 (1982).
ACAT activity was calculated by measuring an amount of a labeled cholesterol ester formed from [1-^14 C]oleoyl-CoA and endogenous cholesterol according to the process of Helgerud et al. [Journal of Lipid Research, 22, 271 (1981)].
ACTA inhibitory activity of compounds tested are shown in Table 1 by a labeled cholesterol ester formation inhibitory rate (%) obtained by addition of the test compounds in an amount of 10^-6 M.

The target in experiment [2] is T1, acyl-CoA: cholesterol acyltransferase (ACAT). The experiment is described as above. Format: biochemical, Spregue-Dawley male rat. The following applies: 0.5 × 10^-6 M; read-out: ACAT inhibitory rate (labeled cholesterol ester formation inhibitory rate).

For `Cc1sc2ncc(NC(=O)Nc3ccc(F)cc3F)c(-c3ccccc3Cl)c2c1C` [Example 5, N-[4-(2-chlorophenyl)-2,3-dimethylthieno[2,3-b]pyridin-5-yl]-N'-(2,4-difluorophenyl)urea], the inhibition at 1 µM in experiment [1] is 93.9%.

On to `CCc1cc2c(-c3ccccc3Cl)c(NC(=O)C=Cc3cc(OC)c(OC(C)=O)c(OC)c3)cnc2s1` [Example 2, 5-(4-Acetoxy-3,5-dimethoxycinnamoylamino)-4-(2-chlorophenyl)-2-ethylthieno[2,3-b]pyridine], for which the inhibition at 1 µM in experiment [1] was determined as 74.3%. Consider `Cc1ccccc1-c1c(NC(=O)Nc2ccc(F)cc2F)cnc2sc(Cl)cc12` [Example 11, N-[2-chloro-4-(2-methylphenyl)thieno[2,3-b]pyridin-5-yl]-N'-[2,4-difluorophenyl)urea], for which, in experiment [1], the inhibition at 1 µM was determined as 94.5%. On the same count and under the same terms, the same measure for `CCc1cc2c(-c3ccccc3Cl)c(NC(=O)Nc3ccc(F)cc3F)c(=O)n(C)c2s1` [Example 3, N-[4-(2-chlorophenyl)-6,7-dihydro-2-ethyl-7-methyl-6-oxothieno[2,3-b]pyridin-5-yl]-N'-(2,4-difluorophenyl)urea]: 99.6%; for `CCc1cc2c(-c3ccccc3Cl)c(NC(=O)Nc3ccc(F)cc3F)cnc2s1` [Example 1, N-[4-(2-chlorophenyl)-2-ethylthieno[2,3-b]pyridin-5-yl]-N'-(2,4-difluorophenyl)urea]: 98.7%; for `CCc1cc2c(-c3ccccc3OC)c(NC(=O)Nc3cc(C)c(OC(C)=O)c(C)c3)cnc2s1` [Example 13, N-(4-acetoxy-3,5-dimethylphenyl)-N'-[2-ethyl-4-(2-methoxyphenyl)thieno[2,3-b]pyridin-5-yl]urea]: 97.5%. On the same count and under the same terms, in the case of `O=C(Cc1ccc(F)cc1F)Nc1cnc2sc3c(c2c1-c1ccccc1Cl)CCC3` [Example 8, 4-(2-chlorophenyl)-3-(2,4-difluorophenylacetylamino)-6,7-dihydro-5H-cyclopenta-[1',2':5,4]thieno-[2,3-b]pyridine] it was 94.4%. With `O=C(Nc1ccc(F)cc1F)Nc1cnc2sc3c(c2c1-c1ccccc1Cl)CCCC3` [Example 12, N-[4-(2-chlorophenyl)-5,6,7,8-tetrahydro[1]-benzothieno[2,3-b]pyridin-3-yl]-N'-(2,4-difluorophenyl)urea], the inhibition at 0.5 µM in experiment [2] was 82.3%. As for `Cc1ccccc1-c1c(NC(=O)Nc2ccc(F)cc2F)cnc2sccc12` [Example 9, N-(2,4-difluorophenyl)-N'-[4-(2-methylphenyl)-thieno[2,3-b]pyridin-5-yl]urea], the inhibition at 1 µM in experiment [1] was 60.2%. Still for that read-out and setting: the same measure for `O=C(Nc1ccc(F)cc1F)Nc1cnc2sc3c(c2c1-c1ccccc1Cl)CCC3` [Example 6, N-[4-(2-chlorophenyl)-6,7-dihydro-5H-cyclopenta[1',2':5,4]thieno[2,3-b]pyridin-3-yl]-N'-(2,4-difluorophenyl)urea]: 96.3%; for `CCc1cc2c(-c3ccccc3Cl)c(NC(=O)Nc3ccc(Cl)cc3)cnc2s1` [Example 4, N-(4-chlorophenyl)-N'-[4-(2-chlorophenyl)-2-ethylthieno[2,3-b]pyridin-5-yl]urea]: 93.6%; for `Cc1cc2c(-c3ccccc3Cl)c(NC(=O)Nc3ccc(F)cc3F)cnc2s1` [Example 10, N-[4-(2-chlorophenyl)-2-methylthieno[2,3-b]pyridin-5-yl]-N'-(2,4-difluorophenyl)urea]: 95.1%. Same read-out and setting: in the case of `CCc1cc2c(-c3ccccc3OC)c(NC(=O)Nc3cc(OC)c(OC(C)=O)c(OC)c3)cnc2s1` [Example 14, N-(4-acetoxy-3,5-dimethoxyphenyl)-N'-[2-ethyl-4-(2-methoxyphenyl)thieno[2,3-b]pyridin-5-yl]urea] it was 91.9%; in that of `O=C(Nc1cnc2sc3c(c2c1-c1ccccc1Cl)CCC3)c1ccc(F)cc1F` [Example 7, 4-(2-chlorophenyl)-3-(2,4-difluorobenzoylamino)-6,7-dihydro-5H-cyclopenta[1',2':5,4]thieno[2,3-b]pyridine], 34.4%.

The values are drawn from patent publication US5256782A, “Thienopyridine derivatives which are intermediates” (Takeda Chemical Industries, Ltd., priority 1990, dated 1993).
